# Test results published in patent US6225307A, “Viral treatment” (priority 2000, dated 2001).
# Tests used:
# HIV-1 protease = target: T1, HIV-1 protease (Human immunodeficiency virus type 1 group M subtype B, UniProt P04585); assay: Protease inhibition assay (fluorometric method); format: biochemical
# T1 construct: fluorometric HIV-1 protease assay; purchased Bachem
# Experimental: Protease inhibition is evaluated using a fluorometric method. Enzyme (Bachem) is diluted to 116 μgm/ml in 50 mM NaOAC, 5 mM DTT, 2 mM EDTA, 10% glycerol (pH 5.0) and stored as 10 μl samples at -20° C., HIV protease substrates I (Molecular Probes) is diluted to a working concentration of 0.32 nmoles/μl. Enzyme (20 μl) and drug (20 μl) are added to each well of a microtiter plate as appropriate. Positive and negative control are evaluated in parallel. Fluorescence is quantitated on Labsystems Fluroskan II using 355 nm/460nm at 37° C. at time zero and at 30 minute intervals for 2 hours. In instances where autofluorescence precludes use of the fluorometric HIV-1 protease assay or confirmation of a result is required, an HPLC based protease assay can be employed.
# HIV-1 integrase = HIV-1 integrase (Human immunodeficiency virus type 1 group M subtype B, UniProt P12497); assay: Integrase inhibition assay; format: biochemical
# Description: A biochemical integrase assay described by Craigie et at (HIV, vol. 2: A practical Approach) Biochemistry, Molecular Biology and Drug Discovery Ed. J. Karn 1995) to screen agents for their ability to inhibit HIV-1 integrase. In this system, a kinased oligonucleotide serves as the target of 3' processing and the subsequent strand transfer reaction. The 3' processing reaction involves the removal of 2 nucleotides from the 31 ends of the substrate and this is followed by the strand transfer reaction in which the 3' ends are joined to the exposed 5' ends. The 20 μl reaction mixture contains 25 mM MOPS (pH 7.2), […] BSA, 10 mM , β-mercaptoethanol, 10% glycerol, 7.5 mM MnCl2, 25 nM (7 ng) substrate (Oligo's Etc., Wilsonville, Ore.) and 200 nM (128 ng) integrase (NIAID AIDS Research and Reference Reagent Program, Bethesda, Md.). The reaction proceeds at 37° C. for 1-2 hours and is terminated by the addition of 20 μl of sequencing stop solution (USB Amersham, Arlington Heights, Ill.). The reaction products are visualized by autoradiography following electrophoresis in 15% polyacrylamide 6M Urea gel. The substrate migrates as a 30 mer, the product of 3' processing migrates as an N-2 band and the strand transfer products migrate more slowly at various sizes larger than the substrate.
# HIV-1 cell line, CEMSKI = assay: Long term in vitro study, CEMSKI cells, reverse transcriptase analysis; format: cell-based; conditions: for Reverse transcriptase data: 7 μg/ml
# Experimental: A microtiter-based reveres transcriptase (RT) reaction is utilized (Buckheit et al (1991) AIDS Research and Human Retroviruses 7:295-302). Tritiated thymidine triphosphate (NEN)(TTP) is resuspended in distilled water at 5 Ci/ml. Poly rA and oligo dT are prepared as a stock solution which is kept at -20° C. The RT reaction buffer is prepared fresh on a daily basis and consists of 125 μl 1M EGTA, 125 μl water, 125 μl Triton X-100, 50 μl Tris (pH 7.4), 50 μl MDDT, and 40 μl 1M MgCl2. These three solutions are mixed together in a ratio of 1 part TTP, 2.5 parts poly rA:oligo dT, 2.5 parts reaction buffer and 4 parts distilled water. Ten microliters of this reaction mixture is placed in a round bottom microtiter place and 15 μl of virus containing supernatant is added and mixed. The plate is incubated at 37° C. and incubated for 60 minutes. Following reaction, the reaction volume is spotted onto filter mats, washed 6 times for 5 minutes each in a 5% sodium phosphate buffer, 2 times for 1 minute each in distilled water, 2 times for 1 minute each in 70% ethanol, and then dried. The dried filter mat is placed in a plastic sample bag, Betaplate scintillation fluid is added and the bag is heat sealed. Incorporated radioactivity is quantified utilizing a Wallac Microbeta scintillation counter.
# Acute infection of most established human cell lines with HIV- I results in the eventual establishment of a constitutive virus-producing chronically infected cell line. The cells can be passaged for long periods of time in culture without loss of virus production. These cells may be utilized to evaluate the effects of anti-HIV compounds on syncytium formation or to evaluate the effects of anti-HIV compounds on levels of virus production from these cells. […] Each of the cells contains an integrated HIV genome or provirus. […]
# CEM-SS cells chronically infected with HIV isolate, for example SKI (CEM-SKI) are cultured in RPM1640 tissue culture medium supplemented with 10% fetal bovine serum and antibiotics. […] After a period of time, usually one week intervals of drug treatment, cells are evaluated to determine if the inhibitory activity of the compound has been affected by treatment of the cells with either compounds. […]
# The cell populations contain integrated copies of the HIV genome and constitutively produce HIV at relatively high levels or are latently infected and only produce virus after stimulation with phorbol esters, tumor necrosis factor or IL6(U1 and ACH2). Reductions in virus products were observed when quantifying supernatant reverse transcriptase activity,
# Toxicity Values are measured by XTT and activity of the compound in the tests is measured by a Reverse Transcriptase analysis. […]
smiles,measurement,setting,value
"CCC1(c2cccc(OC(=O)Nc3ccc(Cl)cc3)c2)CCCCN(C)C1=O (stereo not shown) [(4-chlorophenyl)-carbamic acid, 3-(hexahydro-3-ethyl-1-methyl-2-oxo-1H-azepin-3-yl) 2 phenyl ester]",EC50,HIV-1 protease,> 249 µM
same,"Protease inhibition, mean",HIV-1 protease; 0.1 nM,27.9 fluorometric units
same,"Protease inhibition, sample 1",HIV-1 protease; 0.1 nM,24.7 fluorometric units
same,"Protease inhibition, sample 2",HIV-1 protease; 0.1 nM,31.2 fluorometric units
same,remaining activity at 0.0001 µM,"HIV-1 protease; 0.1 nM, read-out: % ND control",98.2%
same,"Protease inhibition, mean",HIV-1 protease; 1 nM,27.4 fluorometric units
same,"Protease inhibition, sample 1",HIV-1 protease; 1 nM,27.4 fluorometric units
same,"Protease inhibition, sample 2",HIV-1 protease; 1 nM,27.5 fluorometric units
same,remaining activity at 0.001 µM,"HIV-1 protease; 1 nM, read-out: % ND control",96.4%
same,"Protease inhibition, mean",HIV-1 protease; 10 nM,26.8 fluorometric units
same,"Protease inhibition, sample 1",HIV-1 protease; 10 nM,28.5 fluorometric units
same,"Protease inhibition, sample 2",HIV-1 protease; 10 nM,25.1 fluorometric units
same,remaining activity at 0.01 µM,"HIV-1 protease; 10 nM, read-out: % ND control",94.2%
same,"Protease inhibition, mean",HIV-1 protease; 100 nM,30.0 fluorometric units
same,"Protease inhibition, sample 1",HIV-1 protease; 100 nM,29.3 fluorometric units
same,"Protease inhibition, sample 2",HIV-1 protease; 100 nM,30.7 fluorometric units
same,remaining activity at 0.1 µM,"HIV-1 protease; 100 nM, read-out: % ND control",105%
same,activity as a protease inhibitor,HIV-1 protease; screened using a fluorometric method,did not show activity
same,IC50,HIV-1 integrase,> 249 µM
same,activity as an integrase inhibitor,HIV-1 integrase,did not show activity
same,"HIV-1 integrase inhibition, mean",HIV-1 integrase; 0.1 μg/ml,9908
same,"HIV-1 integrase inhibition, sample 1",HIV-1 integrase; 0.1 μg/ml,10151.6
same,"HIV-1 integrase inhibition, sample 2",HIV-1 integrase; 0.1 μg/ml,9664.3
same,remaining activity at 0.1 µg/mL,"HIV-1 integrase; 0.1 μg/ml, read-out: % no drug control",104%
same,"HIV-1 integrase inhibition, mean",HIV-1 integrase; 1 μg/ml,10075
same,"HIV-1 integrase inhibition, sample 1",HIV-1 integrase; 1 μg/ml,9644.6
same,"HIV-1 integrase inhibition, sample 2",HIV-1 integrase; 1 μg/ml,10505.5
same,remaining activity at 1 µg/mL,"HIV-1 integrase; 1 μg/ml, read-out: % no drug control",105%
same,"HIV-1 integrase inhibition, mean",HIV-1 integrase; 10 μg/ml,10097
same,"HIV-1 integrase inhibition, sample 1",HIV-1 integrase; 10 μg/ml,10964.5
same,"HIV-1 integrase inhibition, sample 2",HIV-1 integrase; 10 μg/ml,1129.7
same,remaining activity at 10 µg/mL,"HIV-1 integrase; 10 μg/ml, read-out: % no drug control",116%
same,"HIV-1 integrase inhibition, mean",HIV-1 integrase; 100 μg/ml,10942
same,"HIV-1 integrase inhibition, sample 1",HIV-1 integrase; 100 μg/ml,9648.5
same,"HIV-1 integrase inhibition, sample 2",HIV-1 integrase; 100 μg/ml,12235.7
same,remaining activity at 100 µg/mL,"HIV-1 integrase; 100 μg/ml, read-out: % no drug control",114%
same,Reverse transcriptase data,"HIV-1 cell line, CEMSKI; Day 4",8474
same,Reverse transcriptase data,"HIV-1 cell line, CEMSKI; Day 11",7217
same,Reverse transcriptase data,"HIV-1 cell line, CEMSKI; Day 18",9141
same,"Reverse transcriptase data, continued test","HIV-1 cell line, CEMSKI; run through 222 days",data remained consistent
